Columns and labels:
Experiment in all cases: relative viability (nuclei count vs DMSO), 5 days (fraction); higher = more cells survive
[1] = system: A-427
Method in brief: (§1)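 Relative viability was taken as the ratio of nuclei in treated wells to nuclei in vehicle wells. Lung cancer cell lines in 1536-well plates received compounds by pin tool one day after seeding, either one drug alone or a fixed anchor-drug dose plus five library-drug doses (not always all listed) in √10 steps. Nuclei were counted on 4× images after 5 days of treatment, and values are medians of duplicate plates.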

[2] = system: COR-L23
Method in brief: as §1

[3] = system: EKVX
Method in brief: as §1

[4] = system: LC-2-ad
Method in brief: as §1

[5] = system: LCLC-97TM1
Method in brief: as §1

[6] = system: LK-2
Method in brief: as §1

[7] = system: LXF-289
Method in brief: as §1

[8] = system: NCI-H1437
Method in brief: as §1

[9] = system: NCI-H1666
Method in brief: as §1

[10] = system: NCI-H1792
Method in brief: as §1

[11] = system: NCI-H1915
Method in brief: as §1

[12] = system: NCI-H2085
Method in brief: as §1

[13] = system: NCI-H2087
Method in brief: as §1

[14] = system: NCI-H2126
Method in brief: as §1

[15] = system: NCI-H3122
Method in brief: as §1

[16] = system: NCI-H322M
Method in brief: as §1

[17] = system: NCI-H460
Method in brief: as §1

[18] = system: NCI-H647
Method in brief: as §1

[19] = system: NCI-H661
Method in brief: as §1

[20] = system: NCI-H727
Method in brief: as §1

[21] = system: PC-14
Method in brief: as §1

`Nc1cccc2c1CN(C1CCC(=O)NC1=O)C2=O` (stereo not drawn) [Lenalidomide] + CC(=O)Nc1cccc(-n2c(=O)n(C3CC3)c(=O)c3c(Nc4ccc(I)cc4F)n(C)c(=O)c(C)c32)c1 [Trametinib] (partner 0.02 µM) showed a relative viability ([1]; first compound 0.253 µM) of 0.731, a relative viability ([1]; first compound 0.8 µM) of 0.724 and a relative viability ([1]; first compound 2.53 µM) of 0.825. The relative viability ([1]; first compound 8 µM) was 0.765, the relative viability ([2]; first compound 0.253 µM) was 0.613 and the relative viability ([2]; first compound 0.8 µM) was 0.677. For the same compound, the relative viability ([2]; first compound 2.53 µM) was 0.678, the relative viability ([2]; first compound 8 µM) was 0.508 and the relative viability ([3]; first compound 0.253 µM) was 0.391. For the same compound, the relative viability ([3]; first compound 0.8 µM) was 0.32, the relative viability ([3]; first compound 2.53 µM) was 0.432 and the relative viability ([3]; first compound 8 µM) was 0.328. For the same compound, the relative viability ([4]; first compound 0.253 µM) was 0.868, the relative viability ([4]; first compound 0.8 µM) was 0.943 and the relative viability ([4]; first compound 2.53 µM) was 0.972. For the same compound, the relative viability ([4]; first compound 8 µM) was 0.968, the relative viability ([5]; first compound 0.253 µM) was 0.183 and the relative viability ([5]; first compound 0.8 µM) was 0.239. The relative viability ([5]; first compound 2.53 µM) was 0.212, the relative viability ([5]; first compound 8 µM) was 0.159 and the relative viability ([6]; first compound 0.253 µM) was 0.772. For the same compound, the relative viability ([6]; first compound 0.8 µM) was 0.747, the relative viability ([6]; first compound 2.53 µM) was 0.746 and the relative viability ([6]; first compound 8 µM) was 0.717. It also gave a relative viability ([7]; first compound 0.253 µM) of 0.661, a relative viability ([7]; first compound 0.8 µM) of 0.604 and a relative viability ([7]; first compound 2.53 µM) of 0.671. It also gave a relative viability ([7]; first compound 8 µM) of 0.691, a relative viability ([8]; first compound 0.253 µM) of 0.523 and a relative viability ([8]; first compound 0.8 µM) of 0.365. For the same compound, the relative viability ([8]; first compound 2.53 µM) was 0.611, the relative viability ([8]; first compound 8 µM) was 0.486 and the relative viability ([9]; first compound 0.253 µM) was 0.859. It also gave a relative viability ([9]; first compound 0.8 µM) of 0.765, a relative viability ([9]; first compound 2.53 µM) of 0.93 and a relative viability ([9]; first compound 8 µM) of 0.784. For the same compound, the relative viability ([10]; first compound 0.253 µM) was 0.445, the relative viability ([10]; first compound 0.8 µM) was 0.369 and the relative viability ([10]; first compound 2.53 µM) was 0.59. It also gave a relative viability ([10]; first compound 8 µM) of 0.366, a relative viability ([11]; first compound 0.253 µM) of 0.306 and a relative viability ([11]; first compound 0.8 µM) of 0.319. It also gave a relative viability ([11]; first compound 2.53 µM) of 0.323, a relative viability ([11]; first compound 8 µM) of 0.283 and a relative viability ([12]; first compound 0.253 µM) of 0.507. It also gave a relative viability ([12]; first compound 0.8 µM) of 0.405, a relative viability ([12]; first compound 2.53 µM) of 0.515 and a relative viability ([12]; first compound 8 µM) of 0.464. It also gave a relative viability ([13]; first compound 0.253 µM) of 0.191, a relative viability ([13]; first compound 2.53 µM) of 0.28 and a relative viability ([13]; first compound 8 µM) of 0.186. It also gave a relative viability ([14]; first compound 0.253 µM) of 0.572, a relative viability ([14]; first compound 0.8 µM) of 0.526 and a relative viability ([14]; first compound 2.53 µM) of 0.597. It also gave a relative viability ([14]; first compound 8 µM) of 0.462, a relative viability ([15]; first compound 0.253 µM) of 0.234 and a relative viability ([15]; first compound 0.8 µM) of 0.246. It also gave a relative viability ([15]; first compound 2.53 µM) of 0.253, a relative viability ([15]; first compound 8 µM) of 0.205 and a relative viability ([16]; first compound 0.253 µM) of 0.507. For the same compound, the relative viability ([16]; first compound 0.8 µM) was 0.527, the relative viability ([16]; first compound 2.53 µM) was 0.508 and the relative viability ([16]; first compound 8 µM) was 0.511. The relative viability ([17]; first compound 0.253 µM) was 0.0785, the relative viability ([17]; first compound 0.8 µM) was 0.13 and the relative viability ([17]; first compound 2.53 µM) was 0.127. The relative viability ([17]; first compound 8 µM) was 0.19, the relative viability ([18]; first compound 0.253 µM) was 0.47 and the relative viability ([18]; first compound 0.8 µM) was 0.413. The relative viability ([18]; first compound 2.53 µM) was 0.691, the relative viability ([18]; first compound 8 µM) was 0.422 and the relative viability ([19]; first compound 0.253 µM) was 0.529. The relative viability ([19]; first compound 0.8 µM) was 0.593, the relative viability ([19]; first compound 2.53 µM) was 0.591 and the relative viability ([19]; first compound 8 µM) was 0.533. For the same compound, the relative viability ([20]; first compound 0.253 µM) was 0.383, the relative viability ([20]; first compound 0.8 µM) was 0.378 and the relative viability ([20]; first compound 2.53 µM) was 0.35. For the same compound, the relative viability ([20]; first compound 8 µM) was 0.376, the relative viability ([21]; first compound 0.253 µM) was 0.839 and the relative viability ([21]; first compound 0.8 µM) was 0.722. It also gave a relative viability ([21]; first compound 2.53 µM) of 0.981 and a relative viability ([21]; first compound 8 µM) of 0.779.

Reference: the supplement of paper PMC10307832
